Source: patent publication US9949483B2, “Pesticidally active heterocyclic derivatives with sulphur containing substituents” (Syngenta Participations AG, priority 2014, dated 2018)

How the values were obtained:
Type in all cases: in vivo
[1] = system: Euschistus heros (Neotropical Brown Stink Bug); test: Example B3: Activity against Euschistus heros, soybean leaf sprayed; details: 120 h, application rate of 200 ppm, N-2 nymphs, 5 days after infestation, read-out: effect in at least one of the two categories (mortality or growth inhibition)
Description: Soybean leaf on agar in 24-well microtiter plates were sprayed with aqueous test solutions prepared from 10′000 ppm DMSO stock solutions. After drying the leaf were infested with N-2 nymphs. The samples were assessed for growth inhibition in comparison to untreated samples 5 days after infestation.

[2] = system: Mysus persicae (Green Peach Aphid); test: Example B6: Activity against Mysus persicae, sucrose solution under Parafilm; details: Myzus persicae, 120 h; test rate of 12 ppm; mixed with sucrose solution; 5 days after infestation
Description: Test compounds from 10′000 ppm DMSO stock solutions were applied by pipette into 24-well microtiter plates and mixed with sucrose solution. The plates were closed with a stretched Parafilm. A plastic stencil with 24 holes was placed onto the plate and infested pea seedlings were placed directly on the Parafilm. The infested plate was closed with a gel blotting paper and another plastic stencil and then turned upside down. The samples were assessed for mortality 5 days after infestation.

[3] = system: Mysus persicae (Green Peach Aphid); test: Example B4: Activity against Mysus persicae, sunflower leaf discs sprayed; details: Myzus persicae, foliar, 144 h, application rate of 200 ppm, aphid population of mixed ages, 6 days after infestation
Description: (§1) Sunflower leaf discs were placed on agar in a 24-well microtiter plate and sprayed with aqueous test solutions prepared from 10′000 ppm DMSO stock solutions. After drying, the leaf discs were infested with an aphid population of mixed ages. The samples were assessed for mortality 6 days after infestation.

[4] = system: Diabrotica balteata (Corn Root Worm); test: Example B2: Activity against Diabrotica balteata, maize sprouts sprayed; details: 96 h, application rate of 200 ppm, L2 larvae, 4 days after infestation
Description: Maize sprouts, placed on an agar layer in 24-well microtiter plates were treated with aqueous test solutions prepared from 10′000 ppm DMSO stock solutions by spraying. After drying, the plates were infested with L2 larvae (6 to 10 per well). The samples were assessed for mortality 4 days after infestation.

[5] = system: Plutella xylostella (Diamond Back Moth); test: Example B7: Activity against Plutella xylostella, artificial diet; details: 120 h, application rate of 200 ppm, L2 larvae, 5 days after infestation, read-out: effect in at least one of the two categories (mortality or growth inhibition)
Description: 24-well microtiter plates with artificial diet were treated with aqueous test solutions prepared from 10′000 ppm DMSO stock solutions by pipetting. After drying, the plates were infested with L2 larvae (10 to 15 per well). The samples were assessed for mortality and growth inhibition in comparison to untreated samples 5 days after infestation.

[6] = system: Aedes aegypti (Yellow Fever Mosquito); test: whole plant or invertebrate; details: 48 h, test rate of 5 ppm, L2 larvae, incubation period of 2 days, read-out: effect in at least one of the two categories (mortality or growth inhibition)
Description: 10 to 15 Aedes larvae (L2) together with a nutrition mixture were placed in 96-well microtiter plates. Test compounds were pipetted into the wells. After an incubation period of 2 days insects were assessed for mortality and growth inhibition.

[7] = system: Bemisia tabaci (Cotton White Fly); test: Example B1: Activity against Bemisia tabaci, cotton leaf discs sprayed; details: foliar, 144 h, application rate of 200 ppm, adult white flies, 6 days after incubation
Description: Cotton leaf discs were placed on agar in 24-well microtiter plates and sprayed with aqueous test solutions prepared from 10′000 ppm DMSO stock solutions. After drying the leaf discs were infested with adult white flies. The samples were checked for mortality 6 days after incubation.

[8] = system: Spodoptera littoralis (Egyptian Cotton Leaf Worm); test: Example B9: Activity against Spodoptera littoralis, lettuce grown on treated agar; details: 144 h, test rate of 12.5 ppm, compound mixed with agar, taken up by lettuce roots, 6 days after infestation, read-out: effect in at least one of the three categories (mortality, anti-feedancy, or growth inhibition)
Description: Test compounds were applied by pipette from 10′000 ppm DMSO stock solutions into 24-well plates and mixed with agar. Lettuce seeds were placed on the agar and the multi well plate was closed by another plate which contains also agar. After 7 days the roots have absorbed the compound and the lettuce has grown into the lid plate. The lettuce leafs were now cut off into the lid plate. Spodoptera eggs were pipetted through a plastic stencil on a humid gel blotting paper and the plate closed with it. The samples were assessed for mortality, anti-feedant effect and growth inhibition in comparison to untreated samples 6 days after infestation.

[9] = system: Tetranychus urticae (Two-Spotted Spider Mite); test: Example B10: Activity against Tetranychus urticae, feeding/contact activity; details: 192 h
Description: Bean leaf discs on agar in 24-well microtiter plates were sprayed with aqueous test solutions prepared from 10′000 ppm DMSO stock solutions. After drying the leaf discs were infested with a mite population of mixed ages. The samples were assessed for mortality on mixed population (mobile stages) 8 days after infestation.

[10] = system: Spodoptera littoralis (Egyptian Cotton Leaf Worm); test: Example B8: Activity against Spodoptera littoralis, cotton leaf discs sprayed; details: foliar, 72 h, application rate of 200 ppm, L1 larvae, 3 days after infestation, read-out: control (at least one of mortality, anti-feedant effect, and growth inhibition)
Description: Cotton leaf discs were placed on agar in 24-well microtiter plates and sprayed with aqueous test solutions prepared from 10′000 ppm DMSO stock solutions. After drying the leaf discs were infested with five L1 larvae. The samples were assessed for mortality, anti-feedant effect, and growth inhibition in comparison to untreated samples 3 days after infestation. Control of Spodoptera littoralis by a test sample is when at least one of mortality, anti-feedant effect, and growth inhibition is higher than the untreated sample.

[11] = system: Mysus persicae (Green Peach Aphid); test: Example B5: Activity against Mysus persicae, roots of pea seedlings in test solutions; details: Myzus persicae, 144 h, test rate of 24 ppm, 6 days
Description: Roots of pea seedlings infested with an aphid population of mixed ages were placed directly in the aqueous test solutions prepared from 10′000 DMSO stock solutions. The samples were assessed for mortality 6 days after placing seedlings in test solutions.

[12] = system: Thrips tabaci (Onion Thrips); test: Example B11: Activity against Thrips tabaci, feeding/contact activity; details: 144 h, application rate of 200 ppm, thrips population of mixed ages, 6 days after infestation
Description: as §1, with “in” for “in a”, “plates” for “plate”, “drying” for “drying,”, “a thrips” for “an aphid”

CCSc1ccccc1-n1cc2cnc(C(F)(F)F)cc2n1 [Compound P1, 2-(2-ethylsulfanylphenyl)-6-(trifluoromethyl)pyrazolo[4,3-c]pyridine]
≥ 80%: percent effect (mortality or growth inhibition) at 200 ppm [1] | mortality at 12 ppm [2] | mortality at 200 ppm [3] | mortality at 200 ppm [4] | percent effect (mortality or growth inhibition) at 200 ppm [5] | percent effect (mortality or growth inhibition) at 5 ppm [6] | mortality at 200 ppm [7] | percent control (mortality, anti-feedancy or growth inhibition) at 12.5 ppm [8] | mortality at 200 ppm [9] | mortality at 200 ppm [10]

CCS(=O)(=O)c1ccccc1-n1cc2cnc(C(F)(F)F)cc2n1 [Compound P2, 2-(2-ethylsulfonylphenyl)-6-(trifluoromethyl)pyrazolo[4,3-c]pyridine]
≥ 80%: mortality at 24 ppm [11] | mortality at 200 ppm [3] | mortality at 200 ppm [4] | percent effect (mortality or growth inhibition) at 200 ppm [5] | mortality at 200 ppm [7] | mortality at 200 ppm [10]

CCSc1cccnc1-n1cc2cnc(C(F)(F)F)cc2n1 [Compound P3, 2-(3-ethylsulfanyl-2-pyridyl)-6-(trifluoromethyl)pyrazolo[4,3-c]pyridine]
≥ 80%: percent effect (mortality or growth inhibition) at 200 ppm [1] | mortality at 12 ppm [2] | mortality at 200 ppm [3] | mortality at 200 ppm [4] | percent effect (mortality or growth inhibition) at 200 ppm [5] | percent control (mortality, anti-feedancy or growth inhibition) at 12.5 ppm [8] | mortality at 200 ppm [10]

CCS(=O)(=O)c1cccnc1-n1cc2cnc(C(F)(F)F)cc2n1 [Compound P4, 2-(3-ethylsulfonyl-2-pyridyl)-6-(trifluoromethyl)pyrazolo[4,3-c]pyridine]
≥ 80%: mortality at 24 ppm [11] | percent effect (mortality or growth inhibition) at 200 ppm [1] | mortality at 200 ppm [3] | mortality at 200 ppm [4] | percent effect (mortality or growth inhibition) at 200 ppm [5] | percent control (mortality, anti-feedancy or growth inhibition) at 12.5 ppm [8] | mortality at 200 ppm [10]

CCS(=O)(=O)c1cccnc1-n1cc2cnc(Br)cc2n1 [Compound P6, 6-bromo-2-(3-ethylsulfonyl-2-pyridyl)pyrazolo[4,3-c]pyridine]
≥ 80%: mortality at 200 ppm [3] | mortality at 200 ppm [4]

CCS(=O)(=O)c1cc(C(F)(F)F)cnc1-n1cc2cnc(C(F)(F)F)cc2n1 [Compound P7, 2-[3-ethylsulfonyl-5-(trifluoromethyl)-2-pyridyl]-6-(trifluoromethyl)pyrazolo[4,3-c]pyridine]
≥ 80%: percent effect (mortality or growth inhibition) at 200 ppm [1] | mortality at 200 ppm [3] | mortality at 200 ppm [4] | percent effect (mortality or growth inhibition) at 200 ppm [5] | percent effect (mortality or growth inhibition) at 5 ppm [6] | percent control (mortality, anti-feedancy or growth inhibition) at 12.5 ppm [8] | mortality at 200 ppm [10]

CCS(=O)(=O)c1cc(Br)cnc1-n1cc2cnc(C(F)(F)F)cc2n1 [Compound P8, 2-(5-bromo-3-ethylsulfonyl-2-pyridyl)-6-(trifluoromethyl)pyrazolo[4,3-c]pyridine]
≥ 80%: percent effect (mortality or growth inhibition) at 200 ppm [1] | mortality at 200 ppm [3] | mortality at 200 ppm [4] | percent effect (mortality or growth inhibition) at 200 ppm [5] | mortality at 200 ppm [10]

CCS(=O)(=O)c1cc(C2CC2)cnc1-n1cc2cnc(C(F)(F)F)cc2n1 [Compound P9, 2-(5-cyclopropyl-3-ethylsulfonyl-2-pyridyl)-6-(trifluoromethyl)pyrazolo[4,3-c]pyridine]
≥ 80%: mortality at 200 ppm [4] | mortality at 200 ppm [10]

CCS(=O)(=O)c1cc(-c2ccccc2)cnc1-n1cc2cnc(C(F)(F)F)cc2n1 [Compound P10, 2-(3-ethylsulfonyl-5-phenyl-2-pyridyl)-6-(trifluoromethyl)pyrazolo[4,3-c]pyridine]
≥ 80%: percent effect (mortality or growth inhibition) at 200 ppm [1] | mortality at 200 ppm [3] | mortality at 200 ppm [4] | percent effect (mortality or growth inhibition) at 200 ppm [5] | mortality at 200 ppm [12] | mortality at 200 ppm [10]

CCS(=O)(=O)c1cccnc1-n1cc2nnc(C(F)(F)F)cc2n1 [PP1, 2-(3-ethylsulfonyl-2-pyridyl)-6-(trifluoromethyl)pyrazolo[4,3-c]pyridazine]
≥ 80%: percent effect (mortality or growth inhibition) at 200 ppm [1] | mortality at 200 ppm [3] | mortality at 200 ppm [4] | percent effect (mortality or growth inhibition) at 200 ppm [5] | mortality at 200 ppm [10]
